Measurements taken from patent publication US6720346B2, “Thiazole benzamide derivatives and pharmaceutical compositions for inhibiting cell proliferation” (Agouron Pharmaceuticals, Inc., priority 2001, dated 2004).

Legend:
[1] = target: T1, CDK2/cyclin A (Homo sapiens, UniProt P24941); assay: Inhibition of CDK2/cyclin A retinoblastoma kinase activity (Ki; % inhibition); assay type: biochemical; details: at 0.03 μM
T1 construct: made in house; host or cells: CDK2: insect cells (baculovirus); cyclin A: E. coli
Outline: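 Apparent Ki values came from fitting concentration-dependent activity data to competitive (or competitive tight-binding) models, and % inhibition from single 30 nM screens of library compounds. Activity was measured as ³²P/³³P incorporation from 25 μM ATP into an Rb substrate by 10 or 19 nM CDK2/delta cyclin A at 30 °C over 60–75 min, pH 7.4.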

[2] = target: T2, human CDK4/cyclin D3 (Homo sapiens, UniProt P11802); assay: Inhibition of CDK4/cyclin D retinoblastoma kinase activity (Ki; % inhibition); assay type: biochemical; details: at 0.03 μM
T2 construct: made in house; host or cells: insect cells co-infected with baculovirus vectors
Outline: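 Radiometric filter-binding read-out: Rb residues 386-928 phosphorylated by 5 nM CDK4/cyclin D3(1-264) from baculovirus-infected insect cells, 25 μM ATP, HEPES pH 7.4, 30 °C. Run 20 min, or 60 min for tight-binding inhibitors. Screening at 30 nM theoretical compound; apparent Ki by competitive-inhibition fitting.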

[3] = tested on: HCT-116 cell line; assay: Inhibition of cell growth, MTT tetrazolium salt assay; assay type: cell-based; details: for HCT-116 % Inhibition at 0.25 μM: HCT-116, at 0.25 μM; for HCT-116 % Inhibition at 0.1 μM: HCT-116, at 0.1 μM
Outline: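 Cells in McCoy's 5A medium were given 4 h before compound addition in 0.5% (v/v) DMSO, then incubated 3–5 days at 37 °C, 5% CO2. After 4 h with 0.2 mg/mL MTT, DMSO-solubilized formazan was read at 540 nm; 50% and 90% growth-inhibitory concentrations came from semi-log plots against vehicle controls.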

T2 sequence (P11802 whole entry): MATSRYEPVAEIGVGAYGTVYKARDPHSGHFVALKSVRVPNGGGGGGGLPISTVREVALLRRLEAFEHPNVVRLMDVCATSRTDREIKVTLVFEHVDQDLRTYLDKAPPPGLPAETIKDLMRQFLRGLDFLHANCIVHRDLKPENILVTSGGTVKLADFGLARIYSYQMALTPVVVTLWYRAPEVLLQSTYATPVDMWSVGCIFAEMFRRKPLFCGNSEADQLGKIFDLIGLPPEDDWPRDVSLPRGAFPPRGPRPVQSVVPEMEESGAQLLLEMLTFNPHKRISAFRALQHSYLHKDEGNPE
T2 sequence (P30281 1-264 partner limits assumed): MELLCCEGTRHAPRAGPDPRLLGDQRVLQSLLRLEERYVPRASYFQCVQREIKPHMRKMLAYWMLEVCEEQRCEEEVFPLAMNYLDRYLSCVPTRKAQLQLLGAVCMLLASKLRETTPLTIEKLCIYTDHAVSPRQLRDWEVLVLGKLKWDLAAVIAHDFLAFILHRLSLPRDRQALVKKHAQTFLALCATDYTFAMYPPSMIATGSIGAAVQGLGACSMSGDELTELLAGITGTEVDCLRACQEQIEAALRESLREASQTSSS

Structure (SMILES) | CDK2 % Inhibition at 0.03 μM [1] [%] | CDK4 % Inhibition at 0.03 μM [2] [%] | HCT-116 % Inhibition at 0.25 μM [3] [%] | HCT-116 % Inhibition at 0.1 μM [3] [%]
Nc1nc(Nc2ccc(C(=O)N3CCN(Cc4ccc5c(c4)OCO5)CC3)cc2)sc1C(=O)c1c(F)cccc1F [Example G62] | 7 | 22 | 50 | –
Nc1nc(Nc2ccc(C(=O)N3CCC(CCO)CC3)cc2)sc1C(=O)c1c(F)cccc1F [Example G63] | 4 | 7 | 54 | –
CN(C)CCCN(C)C(=O)c1ccc(Nc2nc(N)c(C(=O)c3c(F)cccc3F)s2)cc1 [Example G64] | 5 | 17 | 57 | –
CC(=O)N1CCN(C(=O)c2ccc(Nc3nc(N)c(C(=O)c4c(F)cccc4F)s3)cc2)CC1 [Example G65] | 12 | 17 | 58 | –
CC(=O)Nc1ccc(NC(=O)c2ccc(Nc3nc(N)c(C(=O)c4c(F)cccc4F)s3)cc2)cc1 [Example G66] | 26 | 14 | 60 | –
Nc1nc(Nc2ccc(C(=O)Nc3cccc4ncccc34)cc2)sc1C(=O)c1c(F)cccc1F [Example G67] | 25 | 12 | 82 | –
Nc1nc(Nc2ccc(C(=O)Nc3cc(F)cc(F)c3)cc2)sc1C(=O)c1c(F)cccc1F [Example G68] | 6 | 3 | 59 | –
CC(C)c1ccc(NC(=O)c2ccc(Nc3nc(N)c(C(=O)c4c(F)cccc4F)s3)cc2)cc1 [Example G69] | 7 | 3 | 70 | –
CC(C)N(Cc1ccccc1)C(=O)c1ccc(Nc2nc(N)c(C(=O)c3c(F)cccc3F)s2)cc1 [Example G70] | −4 | 10 | 53 | –
CN(CCc1ccccn1)C(=O)c1ccc(Nc2nc(N)c(C(=O)c3c(F)cccc3F)s2)cc1 [Example G71] | 3 | 16 | 59 | –
CC(C)CN(C)C(=O)c1ccc(Nc2nc(N)c(C(=O)c3c(F)cccc3F)s2)cc1 [Example G72] | 2 | 12 | 54 | –
CC(=O)NC1CCN(C(=O)c2ccc(Nc3nc(N)c(C(=O)c4c(F)cccc4F)s3)cc2)C1 (centres unmarked) [Example G73] | 19 | 18 | 56 | –
Nc1nc(Nc2ccc(C(=O)Nc3ccc(O)cc3)cc2)sc1C(=O)c1c(F)cccc1F [Example G74] | 23 | 18 | 78 | –
Nc1nc(Nc2ccc(C(=O)Nc3ccc4ncccc4c3)cc2)sc1C(=O)c1c(F)cccc1F [Example G75] | 21 | 15 | 64 | –
Nc1nc(Nc2ccc(C(=O)Nc3cccc(Cl)c3)cc2)sc1C(=O)c1c(F)cccc1F [Example G76] | 7 | 7 | 61 | –
COC(=O)[C@H](C(C)C)N(C)C(=O)c1ccc(Nc2nc(N)c(C(=O)c3c(F)cccc3F)s2)cc1 [Example G77] | 9 | 6 | 51 | –

Structure (SMILES) | CDK2 % Inhibition at 0.03 μM [1] [%] | CDK4 % Inhibition at 0.03 μM [2] [%] | HCT-116 % Inhibition at 0.25 μM [3] [%] | HCT-116 % Inhibition at 0.1 μM [3] [%]
Nc1nc(Nc2ccc(C(=O)N3CCN(C=O)CC3)cc2)sc1C(=O)c1c(F)cccc1F [Example G78] | 11 | 13 | 58 | –
Nc1nc(Nc2ccc(C(=O)N3CCc4ccccc4C3)cc2)sc1C(=O)c1c(F)cccc1F [Example G79] | 2 | 10 | 51 | –
CN(C(=O)c1ccc(Nc2nc(N)c(C(=O)c3c(F)cccc3F)s2)cc1)C1CCCC1 [Example G80] | 3 | 7 | 36 | –
CCN1CCN(C(=O)c2ccc(Nc3nc(N)c(C(=O)c4c(F)cccc4F)s3)cc2)CC1 [Example G81] | 15 | 19 | 58 | –
Nc1nc(Nc2ccc(C(=O)Nc3ccc(S(N)(=O)=O)cc3)cc2)sc1C(=O)c1c(F)cccc1F [Example G82] | 24 | 15 | 48 | –
Nc1nc(Nc2ccc(C(=O)Nc3cccc4cnccc34)cc2)sc1C(=O)c1c(F)cccc1F [Example G83] | 16 | 7 | 64 | –
Nc1nc(Nc2ccc(C(=O)Nc3ccc(Cl)c(Cl)c3)cc2)sc1C(=O)c1c(F)cccc1F [Example G84] | 9 | 3 | 63 | –
NC(=O)c1ccc(NC(=O)c2ccc(Nc3nc(N)c(C(=O)c4c(F)cccc4F)s3)cc2)cc1 [Example G85] | 7 | 6 | 56 | –
COc1cc(NC(=O)c2ccc(Nc3nc(N)c(C(=O)c4c(F)cccc4F)s3)cc2)cc(OC)c1 [Example G86] | 10 | 0 | 73 | 39
Cc1nccc(-c2cccc(NC(=O)c3ccc(Nc4nc(N)c(C(=O)c5c(F)cccc5F)s4)cc3)c2)n1 [Example G87] | −40 | 13 | 78 | 54
Nc1nc(Nc2ccc(C(=O)NCCCN3CCCC3=O)cc2)sc1C(=O)c1c(F)cccc1F [Example G88] | −23 | 6 | 49 | 24
CC(C)C(C)NC(=O)c1ccc(Nc2nc(N)c(C(=O)c3c(F)cccc3F)s2)cc1 (centres unmarked) [Example G89] | −20 | −4 | 59 | 30
CCCCC(CC)NC(=O)c1ccc(Nc2nc(N)c(C(=O)c3c(F)cccc3F)s2)cc1 (centres unmarked) [Example G90] | −30 | 2 | 54 | 24
Nc1nc(Nc2ccc(C(=O)NCCc3ccccc3)cc2)sc1C(=O)c1c(F)cccc1F [Example G91] | −19 | 9 | 68 | 34
CC(CNC(=O)c1ccc(Nc2nc(N)c(C(=O)c3c(F)cccc3F)s2)cc1)N(C)C (centres unmarked) [Example G92] | −7 | 10 | 98 | 85
CN(C)CCCCNC(=O)c1ccc(Nc2nc(N)c(C(=O)c3c(F)cccc3F)s2)cc1 [Example G93] | −4 | 11 | 58 | 26
